pEC50, pIC50: −log10 of the molar value.
Assays:
[1] = tested on: HCV replicon in Huh7 cells; experiment: HCV replicon cell-based assay (FRET); conditions: Hepatitis C virus, Huh-7; HCV replicon; read-out: EC50 range
How it was run: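 Huh7 cells stably carrying a genotype 1b HCV replicon (IRES-neo-EMCV-IRES-NS3-NS5B) were treated with compound for 4 days at 37 °C in 0.5% DMSO final. Lysates containing 10 μM FRET peptide RET S1 were read kinetically at 340/490 nm to give NS3 protease activity, from which EC50 was derived.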

[2] = biological target: T1, HCV NS3/4A protease complex (BMS strain, genotype 1a) (Hepatitis C virus genotype 1a, UniProt P27958, C1454S); experiment: Recombinant HCV NS3/4A protease complex FRET peptide assay, BMS strain; format: biochemical; conditions: IC50 range, NS3/4A BMS Strain
T1 construct: DNA encoding the recombinant HCV NS3/4A protease complex (amino acids 1027 to 1711) for these strains; inferred from the pET21b vector and Ni-NTA purification; made in house; host or cells: Escherichia coli BL21 (DE3), pET21b
T1 sequence (P27958 1658-1714, looked up, stated change not applied): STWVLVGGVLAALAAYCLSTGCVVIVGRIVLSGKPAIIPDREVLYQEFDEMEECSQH
T1 sequence (P27958 1027-1657, looked up, stated change not applied): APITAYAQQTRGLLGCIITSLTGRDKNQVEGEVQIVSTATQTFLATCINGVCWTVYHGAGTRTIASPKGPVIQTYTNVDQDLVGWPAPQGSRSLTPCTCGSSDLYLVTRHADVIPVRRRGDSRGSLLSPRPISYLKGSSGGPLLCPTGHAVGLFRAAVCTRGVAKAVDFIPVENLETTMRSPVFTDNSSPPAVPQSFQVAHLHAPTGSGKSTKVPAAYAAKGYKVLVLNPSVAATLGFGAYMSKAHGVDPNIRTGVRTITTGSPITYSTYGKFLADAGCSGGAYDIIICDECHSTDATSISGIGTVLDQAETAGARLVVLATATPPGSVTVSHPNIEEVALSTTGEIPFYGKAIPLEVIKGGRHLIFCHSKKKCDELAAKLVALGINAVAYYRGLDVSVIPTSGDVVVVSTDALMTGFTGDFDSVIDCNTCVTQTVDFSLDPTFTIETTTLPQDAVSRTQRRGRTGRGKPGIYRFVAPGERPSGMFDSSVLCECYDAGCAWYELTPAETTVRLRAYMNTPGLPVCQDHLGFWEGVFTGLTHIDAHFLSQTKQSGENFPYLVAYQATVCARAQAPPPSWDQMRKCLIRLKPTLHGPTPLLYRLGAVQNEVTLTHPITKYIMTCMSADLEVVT
How it was run: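 Recombinant NS3/4A complex (aa 1027–1711) with C-terminal three-lysine tail, C1711G and C1454S, expressed in E. coli BL21(DE3) and purified by Ni-NTA then Superdex-S200. Inhibition of the complex from each strain measured in vitro by FRET peptide cleavage.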

| SMILES | pEC50 [1] | pIC50 [2] |
| --- | --- | --- |
| C=C[C@@H]1C[C@]1(NC(=O)[C@@H]1C[C@@H](Oc2cc(-c3ccccc3)nc3cc(OC)ccc23)CN1C(=O)[C@@H](NC(=O)OC(C)(C)C)C(C)(C)C)C(=O)NS(=O)(=O)C1(Cc2ccc(F)cc2)CC1 [Compound 40, {1-[2-{1-[1-(4-Fluoro-benzyl)-cyclopropanesulfonylaminocarbonyl]-2-vinyl-cyclopropylcarbamoyl}-4-(7-methoxy-2-phenyl-quinolin-4-yloxy)-pyrrolidine-1-carbonyl]-2,2-dimethyl-propyl}-carbamic acid tert-butyl ester] | 6.30 to 7.30 | > 7.30 |
| C=C[C@@H]1C[C@]1(NC(=O)[C@@H]1C[C@@H](Oc2cc(-c3ccccc3)nc3cc(OC)ccc23)CN1C(=O)[C@@H](NC(=O)OC(C)(C)C)C(C)(C)C)C(=O)NS(=O)(=O)C1(Cc2ccccc2F)CC1 [Compound 41, {1-[2-{1-[1-(2-Fluoro-benzyl)-cyclopropanesulfonylaminocarbonyl]-2-vinyl-cyclopropylcarbamoyl}-4-(7-methoxy-2-phenyl-quinolin-4-yloxy)-pyrrolidine-1-carbonyl]-2,2-dimethyl-propyl}-carbamic acid tert-butyl ester] | 6.30 to 7.30 | > 7.30 |
| C=C[C@@H]1C[C@]1(NC(=O)[C@@H]1C[C@@H](Oc2cc(-c3ccccc3)nc3cc(OC)ccc23)CN1C(=O)[C@@H](NC(=O)OC(C)(C)C)C(C)(C)C)C(=O)NS(=O)(=O)C1(Cc2ccc(OC)cc2)CC1 [Compound 42, {1-[2-{1-[1-(4-Methoxy-benzyl)-cyclopropanesulfonylaminocarbonyl]-2-vinyl-cyclopropylcarbamoyl}-4-(7-methoxy-2-phenyl-quinolin-4-yloxy)-pyrrolidine-1-carbonyl]-2,2-dimethyl-propyl}-carbamic acid tert-butyl ester] | 6.30 to 7.30 | 6.30 to 7.30 |
| C=C[C@@H]1C[C@]1(NC(=O)[C@@H]1C[C@@H](Oc2cc(-c3ccccc3)nc3cc(OC)ccc23)CN1C(=O)[C@@H](NC(=O)OC(C)(C)C)C(C)(C)C)C(=O)NS(=O)(=O)C1(C(=C)C)CC1 [Compound 43, {1-[2-[1-(1-Isopropenyl-cyclopropanesulfonylaminocarbonyl)-2-vinyl-cyclopropylcarbamoyl]-4-(7-methoxy-2-phenyl-quinolin-4-yloxy)-pyrrolidine-1-carbonyl]-2,2-dimethyl-propyl}-carbamic acid tert-butyl ester] | > 7.30 | > 7.30 |
| C=C[C@@H]1C[C@]1(NC(=O)[C@@H]1C[C@@H](Oc2cc(-c3ccccc3)nc3cc(OC)ccc23)CN1C(=O)[C@@H](NC(=O)OC(C)(C)C)C(C)(C)C)C(=O)NS(=O)(=O)C1(C=C(C)C)CC1 [Compound 44, [1-(4-(7-Methoxy-2-phenyl-quinolin-4-yloxy)-2-{1-[1-(2-methyl-propenyl)-cyclopropanesulfonylaminocarbonyl]-2-vinyl-cyclopropylcarbamoyl}-pyrrolidine-1-carbonyl)-2,2-dimethyl-propyl]-carbamic acid tert-butyl ester] | 6.30 to 7.30 | > 7.30 |
| C=C[C@@H]1C[C@]1(NC(=O)[C@@H]1C[C@@H](Oc2cc(-c3ccccc3)nc3cc(OC)ccc23)CN1C(=O)[C@@H](NC(=O)OC(C)(C)C)C(C)(C)C)C(=O)NS(=O)(=O)C1(CC#CCC)CC1 [Compound 45, (1-{4-(7-Methoxy-2-phenyl-quinolin-4-yloxy)-2-[1-(1-pent-2-ynyl-cyclopropanesulfonylaminocarbonyl)-2-vinyl-cyclopropylcarbamoyl]-pyrrolidine-1-carbonyl}-2,2-dimethyl-propyl)-carbamic acid tert-butyl ester] | > 7.30 | > 7.30 |
| C=C[C@@H]1C[C@]1(NC(=O)[C@@H]1C[C@@H](Oc2cc(-c3ccccc3)nc3cc(OC)ccc23)CN1C(=O)[C@@H](NC(=O)OC(C)(C)C)C(C)(C)C)C(=O)NS(=O)(=O)C1(Cc2ncoc2-c2ccccc2)CC1 [Compound 46] | > 7.30 | > 7.30 |
| C=C[C@@H]1C[C@]1(NC(=O)[C@@H]1C[C@@H](Oc2cc(-c3ccccc3)nc3cc(OC)ccc23)CN1C(=O)[C@@H](NC(=O)OC(C)(C)C)C(C)(C)C)C(=O)NS(=O)(=O)C1(Cc2ccncc2)CC1 [Compound 47] | > 7.30 | > 7.30 |
| C=C[C@@H]1C[C@]1(NC(=O)[C@@H]1C[C@@H](Oc2cc(-c3ccccc3)nc3cc(OC)ccc23)CN1C(=O)[C@@H](NC(=O)OC(C)(C)C)C(C)(C)C)C(=O)NS(=O)(=O)C1(Cc2ccccn2)CC1 [Compound 48, (1-{4-(7-Methoxy-2-phenyl-quinolin-4-yloxy)-2-[1-(1-pyridin-2-ylmethyl-cyclopropanesulfonylaminocarbonyl)-2-vinyl-cyclopropylcarbamoyl]-pyrrolidine-1-carbonyl}-2,2-dimethyl-propyl)-carbamic acid tert-butyl ester] | > 7.30 | > 7.30 |
| C=C[C@@H]1C[C@]1(NC(=O)[C@@H]1C[C@@H](Oc2cc(-c3ccccc3)nc3cc(OC)ccc23)CN1C(=O)[C@@H](NC(=O)OC(C)(C)C)C(C)(C)C)C(=O)NS(=O)(=O)C1(Cc2cccnc2)CC1 [Compound 49, (1-{4-(7-Methoxy-2-phenyl-quinolin-4-yloxy)-2-[1-(1-pyridin-3-ylmethyl-cyclopropanesulfonylaminocarbonyl)-2-vinyl-cyclopropylcarbamoyl]-pyrrolidine-1-carbonyl}-2,2-dimethyl-propyl)-carbamic acid tert-butyl] | 6.30 to 7.30 | > 7.30 |
| C=C[C@@H]1C[C@]1(NC(=O)[C@@H]1C[C@@H](Oc2cc(-c3ccccc3)nc3cc(OC)ccc23)CN1C(=O)[C@@H](NC(=O)OC(C)(C)C)C(C)(C)C)C(=O)NS(=O)(=O)C1(Cc2c(C)noc2C)CC1 [Compound 50, {1-[2-{1-[1-(3,5-Dimethyl-isoxazol-4-ylmethyl)-cyclopropanesulfonylaminocarbonyl]-2-vinyl-cyclopropylcarbamoyl}-4-(7-methoxy-2-phenyl-quinolin-4-yloxy)-pyrrolidine-1-carbonyl]-2,2-dimethyl-propyl}-carbamic acid tert-butyl ester] | 5.30 to 6.30 | 6.30 to 7.30 |
| C=C[C@@H]1C[C@]1(NC(=O)[C@@H]1C[C@@H](Oc2cc(-c3ccccc3)nc3cc(OC)ccc23)CN1C(=O)[C@@H](NC(=O)OC(C)(C)C)C(C)(C)C)C(=O)NS(=O)(=O)C1(Cc2cc(C)on2)CC1 [Compound 51, [1-(4-(7-Methoxy-2-phenyl-quinolin-4-yloxy)-2-{1-[1-(5-methyl-isoxazol-3-ylmethyl)-cyclopropanesulfonylaminocarbonyl]-2-vinyl-cyclopropylcarbamoyl}-pyrrolidine-1-carbonyl)-2,2-dimethyl-propyl]-carbamic acid tert-butyl ester] | > 7.30 | > 7.30 |
| C=C[C@@H]1C[C@]1(NC(=O)[C@@H]1C[C@@H](Oc2cc(-c3ccccc3)nc3cc(OC)ccc23)CN1C(=O)[C@@H](NC(=O)OC(C)(C)C)C(C)C)C(=O)NS(=O)(=O)C1(CC2CC2)CC1 [Compound 52, {1-[2-[1-(1-Cyclopropylmethyl-cyclopropanesulfonylaminocarbonyl)-2-vinyl-cyclopropylcarbamoyl]-4-(7-methoxy-2-phenyl-quinolin-4-yloxy)-pyrrolidine-1-carbonyl]-2-methyl-propyl}-carbamic acid tert-butyl ester] | > 7.30 | > 7.30 |
| C=C[C@@H]1C[C@]1(NC(=O)[C@@H]1C[C@@H](Oc2cc(-c3ccccc3)nc3cc(OC)ccc23)CN1C(=O)[C@@H](NC(=O)OC(C)(C)C)C(C)C)C(=O)NS(=O)(=O)C1(CCOC)CC1 [Compound 53, {1-[2-{1-[1-(2-Methoxy-ethyl)-cyclopropanesulfonylaminocarbonyl]-2-vinyl-cyclopropylcarbamoyl}-4-(7-methoxy-2-phenyl-quinolin-4-yloxy)-pyrrolidine-1-carbonyl]-2-methyl-propyl}-carbamic acid tert-butyl ester] | > 7.30 | > 7.30 |
| C=C[C@@H]1C[C@]1(NC(=O)[C@@H]1C[C@@H](Oc2cc(-c3ccccc3)nc3cc(OC)ccc23)CN1C(=O)[C@@H](NC(=O)OC(C)(C)C)C(C)C)C(=O)NS(=O)(=O)C1(COC)CC1 [Compound 54, {1-[2-[1-(1-Methoxymethyl-cyclopropanesulfonylaminocarbonyl)-2-vinyl-cyclopropylcarbamoyl]-4-(7-methoxy-2-phenyl-quinolin-4-yloxy)-pyrrolidine-1-carbonyl]-2-methyl-propyl]-carbamic acid tert-butyl ester] | > 7.30 | > 7.30 |
| C=C[C@@H]1C[C@]1(NC(=O)[C@@H]1C[C@@H](Oc2cc(-c3ccccc3)nc3cc(OC)ccc23)CN1C(=O)[C@@H](NC(=O)OC1CCCC1)C(C)(C)C)C(=O)NS(=O)(=O)C1(Cc2ccccc2)CC1 [Compound 55, {1-[2-[1-(1-Benzyl-cycloprolanesulfonylaminocarbonyl)-2-vinyl-cycloproylcarbamoyl]-4-(7-methoxy-2-phenyl-quinolin-4-yloxy)-pyrrolidine-1-carbonyl]-2,2-dimethyl-propyl}-carbamic acid cyclopentyl ester] | 6.30 to 7.30 | > 7.30 |
